According to PMC9271885 (eBioMedicine, 2022):
“And” between values parts separate entries of the source, which are not always exact repeats. Equal values may be shown once.

Columns and labels:
SARS-CoV-2 [1] = assay: Hamster model of SARS-CoV-2 infection, intranasal NTZ treatment (lung, plasma, nasal turbinates); assay type: in vivo, Syrian hamsters; set-up: Lung Infectious titers / Lung Viral RNA yields / Plasmatic viral RNA yields / Nasal Turbinates Infectious titers / Nasal Turbinates Viral RNA yields: unit not given here
[2] = Clinical course of the disease in infected hamsters (normalized weight, clinical signs); assay type: in vivo, Syrian hamsters
Protocol: Three-week-old female Syrian hamsters were provided by Janvier Labs (SPF status). Animals were maintained in ISOcage P - Bioexclusion System (Techniplast) with unlimited access to water/food and 14h/10h light/dark cycle. A wooden gnawing block and extra bedding material was provided as cage enrichment. Animals were weighed and monitored daily for the duration of the study to detect the appearance of any clinical signs of illness/suffering. General anesthesia was obtained with isoflurane (Isoflurin®, Axience). Euthanasia, which was also realized under general anesthesia, was performed by cervical dislocation.
Groups of 6 hamsters were intranasally infected with 10^4 TCID50 of virus. a Experimental timeline. b, f, j Viral replication in lung based on infectious titers (measured using a TCID50 assay) expressed in TCID50/g of lung (n=6 animals/group). c, g, k Viral replication in lung based on viral RNA yields (measured using an RT-qPCR assay) expressed in viral genome copies/g of lung (n=6 animals/group). d, h, l Plasma viral loads (measured using an RT-qPCR assay) are expressed in viral genome copies/mL of plasma (the dotted line indicates the detection threshold of the assay) (n=6 animals/group). e, i, m Clinical course of the disease (n=6 animals/group). Normalized weight at day n was calculated as follows: % of initial weight of the animal at day n. Data represent mean ± SD (Details in Supplementary Data 2).

SARS-CoV-2 [3] = assay: Lung histopathological changes in infected hamsters (cumulative score, grade of severity); assay type: in vivo, Syrian hamsters
Protocol: The anatomo-histological study was implemented as previously described.[24]^,[26] Briefly, lungs were collected after intratracheal instillation of 4% (w/v) formaldehyde solution, and then fixed 72h at room temperature with a 4% (w/v) formaldehyde solution before being embedded in paraffin. Tissue sections of 3.5µm were stained with hematoxylin-eosin (H&E) and blindly analyzed by a certified veterinary pathologist. Microscopic examination was done using a Nikon Eclipse E400 microscope. Different anatomic compartments were examined (1) for bronchial and alveolar walls, a score of 0 to 4 was assigned based on severity of inflammation; (2) regarding alveoli, a score of 0 to 2 was assigned based on presence and severity of hemorrhagic necrosis; (3) regarding vessel changes (leucocytic accumulation in vascular wall or in endothelial compartment), absence or presence was scored 0 or 1 respectively. A cumulative score was then calculated and assigned to a grade of severity (see Supplementary Table 4).
Groups of 4 hamsters, intranasally infected with 10^4 TCID50 of SARS-CoV-2, were orally treated at a dose of 500mg/kg/day BID for 4 days (0, 1, 2 and 3 dpi) (Figure 4a). Untreated hamsters (group of 4 animals) received the suspension vehicle BID. Animals were sacrificed at 5 dpi and a cumulative score from 0 to 10 (taking into account severity of inflammation, alveolar hemorrhagic necrosis and vessel lesions) was calculated and then assigned to a grade of severity (0=normal; 1=mild; 2=moderate; 3=marked and 4=severe; details in Supplementary Data 4).

SARS-CoV-2 [4] = details: Vero E6 cells at 48 h post-infection; read-out: 50% effective concentration (EC50); cited from earlier work
[5] = in vivo, cited from earlier work
[6] = cited from earlier work
[7] = NTZ emulsion 2.8mg/kg/day TID intranasal, 3 dpi, first experiment
[8] = Nitazoxanide IN 2.8mg/kg/day TID, inoculum 104 TCID50, sacrifice day 3, Figure 5, individual animals
[9] = Nitazoxanide IN 2.8mg/kg/day TID, inoculum 104 TCID50, sacrifice day 3, Figure SF 2, individual animals
[10] = Nitazoxanide per os 500mg/kg/day BID, inoculum 104 TCID50, sacrifice day 3, Figure 3, individual animals
[11] = Nitazoxanide per os 500mg/kg/day BID, inoculum 104 TCID50, sacrifice day 5, Figure 3, individual animals
[12] = Nitazoxanide per os 750mg/kg/day BID, inoculum 104 TCID50, sacrifice day 3, Figure 3, individual animals
[13] = nitazoxanide 500mg/kg/day per os BID, day of sacrifice 5, individual animals

With `CC(=O)Oc1ccccc1C(=O)Nc1ncc([N+](=O)[O-])s1` [NTZ, Nitazoxanide] the “viral replication in clarified lung homogenates, plasma or nasal turbinates vs untreated” value (SARS-CoV-2 [1]; NTZ 2.8mg/kg/day TID intranasal, repeated independent experiment) was “no significant differences”, the “infectious titers in clarified lung homogenates vs untreated” value (SARS-CoV-2 [1]; [7]) was “significant increase” and the “infectious titers in nasal turbinates vs untreated” value (SARS-CoV-2 [1]; [7]) was “no significant differences”. For the same compound, the “viral RNA load in nasal turbinates vs untreated” value (SARS-CoV-2 [1]; [7]) was “significant reduction”, the “viral RNA yields in clarified lung homogenates vs untreated” value (SARS-CoV-2 [1]; [7]) was “No significant differences” and the “viral RNA yields in plasma vs untreated” value (SARS-CoV-2 [1]; [7]) was “No significant differences”. The “Lung Infectious titers” value (SARS-CoV-2 [1]; [8]) was 7.738 and 7.565 and 7.260 and 7.126 and 7.436 and 7.154, the “Lung Viral RNA yields” value (SARS-CoV-2 [1]; [8]) was 8.897 and 8.809 and 8.599 and the “Nasal Turbinates Infectious titers” value (SARS-CoV-2 [1]; [8]) was 2.483 and 2.551 and 3.472 and 4.082 and 3.115 and 4.229. For the same compound, the “Nasal Turbinates Viral RNA yields” value (SARS-CoV-2 [1]; [8]) was 4.363 and 4.565 and 5.134 and 5.523 and 5.262 and 5.603, the “Plasmatic viral RNA yields” value (SARS-CoV-2 [1]; [8]) was 3.551 and 4.595 and 4.938 and 4.386 and 5.492 and 4.672 and the “Lung Infectious titers” value (SARS-CoV-2 [1]; [9]) was 6.420 and 6.814 and 6.658 and 6.401 and 6.100 and 6.859. For the same compound, the “Lung Viral RNA yields” value (SARS-CoV-2 [1]; [9]) was 7.102 and 7.087, the “Nasal Turbinates Infectious titers” value (SARS-CoV-2 [1]; [9]) was 3.220 and 2.494 and 2.987 and 4.228 and 2.922 and 3.399 and the “Nasal Turbinates Viral RNA yields” value (SARS-CoV-2 [1]; [9]) was 5.240 and 5.486 and 5.403 and 6.486 and 5.764 and 5.350. The “mean normalized weight vs untreated animals” value ([2]; NTZ 2.8mg/kg/day TID intranasal, 1 to 3 dpi, first experiment) was “significantly lower than that of untreated animals”, the “mean normalized weight vs untreated animals” value ([2]; NTZ 2.8mg/kg/day TID intranasal, 1 to 3 dpi, repeated experiment) was “significantly lower than that of untreated animals” and the “mean normalized weight vs untreated animals” value ([2]; NTZ 500mg/kg/day BID oral for 3 days, at 3 dpi) was “significantly lower than that of untreated animals”. The “clinical signs of illness/suffering compared to untreated animals” value ([2]; NTZ 500mg/kg/day BID oral for 4 days, followed to 5 dpi) was “did not show any clinical signs of illness/suffering”, the “mean normalized weight vs untreated animals” value ([2]; NTZ 750mg/kg/day TID oral for 3 days, at 2 dpi) was “significantly lower than that of untreated animals” and the “Normalized weights Day 0” value [2, 8] was 100. The “Normalized weights Day 1” value [2, 8] was 90.2 and 91.4 and 94.7 and 92.3 and 86.3 and 91.5, the “Normalized weights Day 2” value [2, 8] was 81.4 and 83.1 and 86.9 and 88.1 and 80.0 and 82.4 and the “Normalized weights Day 3” value [2, 8] was 70.4. The “Normalized weights Day 0” value [2, 9] was 100, the “Normalized weights Day 1” value [2, 9] was 92.6 and 97.1 and 95.9 and 101.1 and 97.4 and 94.0 and the “Normalized weights Day 2” value [2, 9] was 84.7 and 91.2 and 89.0 and 92.2 and 87.0 and 85.8. The “Normalized weights Day 0” value [2, 10] was 100, the “Normalized weights Day 1” value [2, 10] was 103.3 and 103.7 and 101.9 and 97.1 and 103.5 and 104.5 and the “Normalized weights Day 2” value [2, 10] was 100.2 and 95.2 and 98.6 and 92.0 and 97.9 and 99.6. The “Normalized weights Day 3” value [2, 10] was 97.9 and 94.1 and 93.4 and 93.2, the “Normalized weights Day 0” value [2, 11] was 100 and the “Normalized weights Day 1” value [2, 11] was 103.8 and 103.9 and 104.9 and 104.4 and 104.6 and 102.8. For the same compound, the “Normalized weights Day 2” value [2, 11] was 96.9 and 95.0 and 102.9 and 95.3 and 100.2, the “Normalized weights Day 3” value [2, 11] was 96.2 and 96.1 and the “Normalized weights Day 4” value [2, 11] was 83.8. For the same compound, the “Normalized weights Day 5” value [2, 11] was 98.6 and 90.9 and 91.2 and 79.5 and 92.9, the “Normalized weights Day 0” value [2, 12] was 100 and the “Normalized weights Day 1” value [2, 12] was 102.2 and 103.1 and 105.8 and 99.4 and 106.0 and 101.2. The “Normalized weights Day 2” value [2, 12] was 95.2 and 96.5 and 95.6 and 90.1 and 90.2, the “Normalized weights Day 3” value [2, 12] was 92.7 and the “mean normalized weight vs untreated animals” value ([2]; histopathology experiment, NTZ 500mg/kg/day BID oral, at 3 dpi) was “significantly lower than that of untreated animals”. For the same compound, the “Normalized weights Day 0” value ([2]; infected hamsters, nitazoxanide 500mg/kg/day per os BID, Day 0, individual animals) was 100, the “Normalized weights Day 1” value ([2]; infected hamsters, nitazoxanide 500mg/kg/day per os BID, Day 1, individual animals) was 100.5 and 102.7 and 103.7 and 103.5 and the “Normalized weights Day 2” value ([2]; infected hamsters, nitazoxanide 500mg/kg/day per os BID, Day 2, individual animals) was 94.1 and 99.3 and 98.2. The “Normalized weights Day 3” value ([2]; infected hamsters, nitazoxanide 500mg/kg/day per os BID, Day 3, individual animals) was 92.9 and 96.2, the “Normalized weights Day 4” value ([2]; infected hamsters, nitazoxanide 500mg/kg/day per os BID, Day 4, individual animals) was 86.9 and the “Normalized weights Day 5” value ([2]; infected hamsters, nitazoxanide 500mg/kg/day per os BID, Day 5, individual animals) was 90.1 and 88.3 and 85.4 and 93.9. For the same compound, the “histopathological cumulative scores in lungs vs untreated” value (SARS-CoV-2 [3]; NTZ 500mg/kg/day BID oral for 4 days, sacrificed at 5 dpi) was “no significant difference”, the “Histologic scores Bronchitis” value (SARS-CoV-2 [3]; [13]) was 4 and 3 and the “Histologic scores Endothelitis / Vasculitis” value (SARS-CoV-2 [3]; [13]) was 1. The “Histologic scores Hemorrhagic necrosis” value (SARS-CoV-2 [3]; [13]) was 0 and 1, the “Histologic scores Interstitial pneumonia” value (SARS-CoV-2 [3]; [13]) was 4 and 3 and the “Histologic scores Total score” value (SARS-CoV-2 [3]; [13]) was 9 and 10 and 8 and 7. The “Histologic scores Grade” value (SARS-CoV-2 [3]; nitazoxanide 500mg/kg/day per os BID, day of sacrifice 5, individual animals, grade printed as number) was 4 and 3 and the EC50 (SARS-CoV-2 [4]) was 2120 nM.

In the case of `O=C(Nc1ncc([N+](=O)[O-])s1)c1ccccc1O` [TIZ, tizoxanide], the Tmax ([5]; human) is given as “approximately 2 hours”, the apparent clearance [5] is given as 19.34 L/h and the volume of distribution [5] is given as 38.68 L. The “bound to plasma proteins” value [6] was 99%.
